Columns and labels:
PI3Kα = molecular target: T1, PI3Kα (Homo sapiens, UniProt P42336); assay: In vitro PI3K AlphaScreen assay, PI3Kα; assay type: biochemical; conditions: PI(4,5)P2 substrate, 20 minutes at room temperature, read-out: P13Kalpha IC50 um
T1 construct: Full length p110 subunits of PI3K α, β and δ, N-terminally labeled with polyHis tag; polyHis (N); made in house; host or cells: Sf9 insect cells (baculovirus)
Procedure: The PI3K AlphaScreen® assay (PerkinElmer, Waltham, Mass.) measures the activity of a panel of four phosphoinositide 3-kinases: PI3Kα, PI3KIβ, PI3Kγ, and PI3Kδ. Each of these enzymes phosphorylates the 3′-hydroxyl group on phosphatidylinositiol (4,5)-bisphosphate (PIP2) to produce phosphatidylinositol (3,4,5)-trisphosphate (PIP3). This phosphorylation activity is measured using a GST-tagged PIP3 binding protein (Echelon Biosciences, Salt Lake City, Utah), an anti-GST-tagged Acceptor bead, and streptavidin-Donor bead. The interaction of biotinylated-PIP3 analog (IP4) and the PIP3 binding protein brings both Acceptor and Donor beads together producing, upon excitation of the Donor beads at 680 nm, a singlet oxygen species leading to the luminescent AlphaScreen® signal. When PIP3 is produced via phosphorylation of PIP2 by a PI3K, PIP3 competes with biotinylated-PIP3 analog (IP4) for binding to the PIP3 binding protein. In the absence of this interaction, proximity of the Donor and Acceptor beads is decreased, producing a loss of luminescent signal which is […] to PI3K activity. […] The enzyme reaction buffer is made using sterile water (Baxter, Deerfield, Ill.) and 50 mM Tris HCl pH 7, 14 mM MgCl2, 2 mM sodium cholate, and 100 mM NaCl. 2 mM DTT is added fresh the day of the experiment. The AlphaScreen® reaction buffer is made using sterile water and 10 mM Tris HCl pH 7.5, 150 mM NaCl, 0.10% Tween 20, and 30 mM EDTA. 1 mM DTT is added fresh the day of the experiment. The source plates for this assay are 384-well Greiner clear polypropylene plates containing test compounds at 5 mM and diluted 1:2 over 22 points. Columns 23 and 24 contain only DMSO as these are designated for positive and negative controls. Source plates are replicated into 384-well Optiplates (PerkinElmer, Waltham, Mass.), 0.5 μL/well, to make assay-ready plates. The different PI3K isoforms are each diluted in enzyme reaction buffer to 2× working solutions. PI3Kα is diluted to 1.6 nM, PI3Kβ is diluted to 0.8 nM, PI3Kγ is diluted to 15 nM, and PI3Kδ is diluted to 1.6 nM. Two different 2× substrate solutions are made in enzyme reaction buffer. In one solution, PI(4,5)P2 (Echelon Biosciences, Salt Lake City, Utah) is diluted to 10 μM and ATP is diluted to 20 μM. This solution is used in the assays testing PI3Kα and PI3Kβ. In a second solution, PI(4,5)P2 is diluted to 10 μM and ATP is diluted to 80 μM. This solution is used in the assays testing PI3Kγ and PI3Kδ. The AlphaScreen® reaction solutions are made using beads from the anti-GST AlphaScreen® kit (PerkinElmer, Waltham, Mass.). Two solutions are made in Alphascreen reaction buffer to 4× working concentrations. In one solution, biotinylated-IP4 (Echelon Biosciences, Salt Lake City, Utah) is diluted to 40 nM and streptavadin-Donor Beads are diluted to 80 μg/mL. In the second solution, PIP3-binding protein (Echelon Biosciences, Salt Lake City, Utah) is diluted to 40 nM and anti-GST-Acceptor Beads are diluted to 80 μg/mL. 10 μL/well of enzyme reaction buffer is added to Column 24 of the assay ready plates in place of enzyme. This is done for plates in the PI3Kα, β, and δ assays. Using a 384-well dispensing Multidrop (Titertek, Huntsville, Ala.), 10 μL/well of 2× enzyme (PI3Kα, β, δ) is added to Columns 1-23 of the appropriate assay ready plates (for PI3Kγ 10 μL is added to Columns 1-24). 10 μL/well of the appropriate substrate solution (the solution with 20 μM ATP for PI3Kα and β assays, and the solution with […] for PI3Kγ and δ assays) is then added to Columns 1-24 of the plates. Plates are then incubated at room temperature for 20 minutes. In the dark, 10 μL/well of the Donor Bead solution is added to Columns 1-24 of the plates to quench the enzyme reaction. The plates are incubated at room temperature for 30 minutes. Still in the dark, 10 μL/well of the Acceptor Bead solution is also added to Columns 1-24 of the plates. The plates are then incubated in the dark for 1.5 hours.

mTOR = mTOR (Homo sapiens, UniProt P42345); assay: mTOR LanthaScreen (TR-FRET, phosphorylation of 4EBP1); assay type: biochemical; conditions: phosphorylation of GFP-4E-BP1, 10 μM ATP, 90 minutes
Procedure: The mTOR LanthaScreen is a TR-FRET assay measuring the phosphorylation of mTOR's substrate 4EBP1. 384 well compound plates were prepared containing 1 μl of compound per well starting at 5 mM and diluted 1:2 across the row, resulting in a 22 well serial dilution. 24 μl of assay buffer (Invitrogen, PV4794) with 2 mM DTT was added to the compound plate in rows 1-24 using the VELOCITY 11™ VPREP™ 384 ST resulting in a DMSO concentration of 4%. The compound plate was mixed and 2.5 μl of serially diluted compound or controls was added to the assay plate (Costar, 3658).
The assay was conducted on the PerkinElmer® FlexDrop PLUS. A 5 μl mix of 800 nM GFP-4E-BP1 (Invitrogen, PV4759) and 20 μM ATP (Amgen) was added to rows 1-24. 2.5 μl of 0.6 μg/ml of mTOR Enzyme (Amgen) was added to rows 1-23. 2.5 μl of assay buffer was added to row 24 for the low control. The final concentration of the compounds was 50 μM serially diluted to 23.84 pM in 1% DMSO. […] The final concentrations in the assay reagents were 400 nM GFP-4E-BP1, 10 μM of ATP and 0.15 μg/ml of mTOR enzyme. The compound, enzyme, and substrate were incubated for 90 minutes. At this point, 10 μl of stop solution was added (20 mM Tris, pH 7.5 (Invitrogen, 15567-027), 0.02% Sodium Azide (Teknova, S0208), 0.01% NP-40 (Roche, 11754599001), 20 mM EDTA (Invitrogen, 15575-038) and 4 nM of Tb-anti-p4E-BP1 (Invitrogen, PV4758)) for a final concentration of 2 nM of Tb-anti-p4E-BP1.
Sixty minutes later the plates were read on the PerkinElmer® EnVision™ 2103 Multilable Reader using the Excitation filter 340 nm and the Emission filters 520 nm and 495 nm.

[1] = tested on: phosphorylation of Akt at Serine 473 in U87 MG cells; assay: pAkt AlphaScreen (U87 cell); assay type: cell-based; conditions: Homo sapiens, U-87 MG, 2 h; pAkt at Serine 473, U87 MG cells, two hours with compound
Procedure: The pAkt AlphaScreen® assay (PerkinElmer, Waltham, Mass.) determines whether there is phosphorylation of Akt at Serine 473 by recruitment of a phosphospecific antibody. This assay was performed using U87 MG cells. The U87 growth media consists of MEM (Gibco, Carlsbad, Calif.) supplemented with 10% FBS (Gibco), 1× Non-Essential Amino Acids (Gibco,) and 1× Penicillin/Streptomycin/Glutamine (Gibco). The cells were maintained weekly using 0.05% Trypsin (Gibco) and replated in 150 mm TC— Treated Culture Dishes (Corning, Corning, N.Y.).
The first day of the assay, the adherent cells were trypsinized, media was added to the loose cells and cells were mixed to a homogenous mixture. 0.5 ml of the homogenous mixture was counted on the Beckman Coulter® Vi-Cell™ XR (Fullerton, Calif.). 50 frames of cells were counted and the number of viable cells was determined. The cells were then diluted to 0.25 million cells per ml, and centrifuged at 200 rcf for 5 minutes. The media was removed and the cells were reconstituted in fresh media for plating. The cells were plated at 20 μl per well on the PerkinElmer® FlexDrop PLUS in Low Volume 384 Well White Tissue Culture Plates (Corning) with a final cell density of 5K cells per well. The plates were incubated overnight at 37° Celsius, 5% CO2.
On the second day, the compound plates were prepared, the cells were treated with compound and the pAkt reaction mix was added to the cell lysate. 384 well compound plates were prepared containing 1 μl of compound per well starting at 5 mM and diluted 1:2 across the row, resulting in a 22 well serial dilution. 39 μl of growth media was added to the compound plate in rows 1-22 using the PerkinElmer® FlexDrop PLUS resulting in a DMSO concentration of 2.5%. The cell plates and diluted compound plates were put onto the VELOCITY11™ VPREP™ 384 ST where the compound plate was mixed and 5 μl of serially diluted compound or controls was added to the cell plate. The final concentration of the compounds was 25 μM serially diluted to 11.9 pM in 0.5% DMSO.
The cell plates were then incubated with compound for two hours at 37° C., 5% CO2. After two hours, the media in the cell plates was aspirated using the BioTek® ELx405HT plate washer (Winooski, Vt.) removing the majority of media and compound without disturbing the adherent U87 cells. The following assay reagents are components of the SureFire® Akt (Ser 473) Phosphorylation 50K Point Kit (TGR BioSciences, Adelaide, Austalia) and an IgG Detection Kit (PerkinElmer, Waltham, Mass.). 5 μl of 1× Lysis Buffer was added to each well using the PerkinElmer® FlexDrop PLUS. The plates were then incubated at room temperature on a shaker for ten minutes. The AlphaScreen® reaction was prepared under low light conditions (subdued or green light) including p-Aid (Ser 473) Reaction Buffer, Dilution Buffer, Activation Buffer, Acceptor Beads and Donor Beads at a ratio of 40:20:10:1:1 respectively. The AlphaScreen® reaction was added to the cell lysate at 6 μl per well using the PerkinElmer® FlexDrop PLUS. The plates were placed in a humid environment to reduce edge effects and incubated overnight at room temperature with restricted air flow in the dark.
On the final day of the experiment, the plates were read on the PerkinElmer® EnVision™ 2103 Multilable Reader using the standard AlphaScreen® readout. The POC is calculated and the data is analyzed to report the IC50 IP for pAkt at Serine 473.
Activity data for the compounds tested in the PI3K cell based Akt assay is provided in Table 1 under the column heading U87

T1 sequence (P42336 whole entry): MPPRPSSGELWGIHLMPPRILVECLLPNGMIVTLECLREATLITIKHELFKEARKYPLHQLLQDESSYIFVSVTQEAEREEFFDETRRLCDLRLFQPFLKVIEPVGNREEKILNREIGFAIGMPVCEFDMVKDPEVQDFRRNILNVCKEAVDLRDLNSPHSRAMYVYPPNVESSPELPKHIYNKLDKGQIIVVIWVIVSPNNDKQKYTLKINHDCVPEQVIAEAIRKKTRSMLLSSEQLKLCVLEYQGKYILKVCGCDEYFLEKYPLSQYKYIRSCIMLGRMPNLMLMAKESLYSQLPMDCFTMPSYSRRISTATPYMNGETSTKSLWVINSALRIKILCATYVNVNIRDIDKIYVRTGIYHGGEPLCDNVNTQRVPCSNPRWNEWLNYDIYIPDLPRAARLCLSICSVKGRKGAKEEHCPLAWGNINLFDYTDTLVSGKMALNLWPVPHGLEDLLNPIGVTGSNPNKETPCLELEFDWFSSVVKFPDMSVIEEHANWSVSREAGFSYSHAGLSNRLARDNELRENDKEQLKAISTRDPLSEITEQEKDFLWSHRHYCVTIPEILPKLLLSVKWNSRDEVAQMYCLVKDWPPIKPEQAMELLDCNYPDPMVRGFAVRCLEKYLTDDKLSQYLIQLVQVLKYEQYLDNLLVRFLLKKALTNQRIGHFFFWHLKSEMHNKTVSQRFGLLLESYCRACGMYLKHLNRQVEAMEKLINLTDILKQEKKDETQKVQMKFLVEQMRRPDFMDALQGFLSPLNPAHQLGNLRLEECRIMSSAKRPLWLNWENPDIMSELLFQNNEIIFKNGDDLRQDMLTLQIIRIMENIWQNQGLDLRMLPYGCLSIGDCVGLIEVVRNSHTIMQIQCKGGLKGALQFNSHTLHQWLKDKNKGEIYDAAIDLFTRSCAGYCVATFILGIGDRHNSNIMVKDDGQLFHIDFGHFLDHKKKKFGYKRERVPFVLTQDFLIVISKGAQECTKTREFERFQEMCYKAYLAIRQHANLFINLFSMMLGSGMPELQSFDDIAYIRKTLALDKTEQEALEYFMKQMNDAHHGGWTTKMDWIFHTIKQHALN
T1 sequence (P27986 whole entry partner): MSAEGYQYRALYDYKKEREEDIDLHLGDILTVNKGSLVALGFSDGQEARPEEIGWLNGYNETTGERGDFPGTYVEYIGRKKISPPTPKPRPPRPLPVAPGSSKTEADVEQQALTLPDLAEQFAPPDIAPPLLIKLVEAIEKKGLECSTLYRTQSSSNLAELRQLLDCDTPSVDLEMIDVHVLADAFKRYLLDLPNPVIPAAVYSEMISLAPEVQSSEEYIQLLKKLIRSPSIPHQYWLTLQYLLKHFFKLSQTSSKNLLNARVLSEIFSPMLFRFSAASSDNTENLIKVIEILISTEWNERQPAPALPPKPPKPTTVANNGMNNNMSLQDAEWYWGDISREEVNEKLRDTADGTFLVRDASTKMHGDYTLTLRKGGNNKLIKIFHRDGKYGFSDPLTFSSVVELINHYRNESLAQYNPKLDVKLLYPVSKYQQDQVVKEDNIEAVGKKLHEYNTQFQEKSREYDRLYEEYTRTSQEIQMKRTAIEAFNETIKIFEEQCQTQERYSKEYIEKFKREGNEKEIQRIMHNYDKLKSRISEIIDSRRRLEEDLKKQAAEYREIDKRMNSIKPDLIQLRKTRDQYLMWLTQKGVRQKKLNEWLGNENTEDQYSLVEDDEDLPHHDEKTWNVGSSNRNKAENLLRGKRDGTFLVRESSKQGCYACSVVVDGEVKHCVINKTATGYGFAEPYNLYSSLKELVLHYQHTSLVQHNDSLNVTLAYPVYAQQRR

| SMILES | IC50 (PI3Kα) [nM] | IC50 (mTOR) [nM] | IC50 [1] [nM] |
| --- | --- | --- | --- |
| Cc1nc(N)nc(-c2c(Nc3ccn(C(=O)NCCO)n3)nc3ccccn23)n1 [Cpd 198, 3-((3-(4-amino-6-methyl-1,3,5-triazin-2-yl)imidazo[1,2-a]pyridin-2-yl)amino)-N-(2-hydroxyethyl)-1H-pyrazole-1-carboxamide] | 2210 | 110 |  |
| Cc1nc(N)nc(-c2c(Nc3ccnn3C(=O)N3CCOCC3)nc3ccccn23)n1 [Cpd 201] | 1390 | 250 |  |
| Cc1nc(N)cc(-c2c(Nc3ccn(S(C)(=O)=O)n3)nc3ccccn23)n1 [Cpd 217, 3-(6-amino-2-methyl-4-pyrimidinyl)-N-(1-(methylsulfonyl)-1H-pyrazol-3-yl)imidazo[1,2-a]pyridin-2-amine] |  | 1740 | 1180 |
| CNCCNC(=O)n1ccc(Nc2nc3cccnn3c2-c2cc(N)nc(C)n2)n1 [Cpd 258] | 30 | 500 |  |

— patent publication US20120190666A1, “Heteroaryl Compounds as PIKK Inhibitors” (Amgen Inc., priority 2009, published 2012)
